Patent US5053006A, “Method for the permanent occlusion of arteries” (priority 1990, dated 1991)
Several values for one entry are separate records, joined by “and”; a condition that tells them apart may be missing. Identical values can stand only once.

How the values were obtained:
[1] = system: corneal cholesterol; experiment: Corneal cholesterol content after photothrombosis (Example 6); type: in vivo, New Zealand white rabbit; details: for Corneal Cholesterol Concentration, Difference Between Treated and Untreated Eyes / Corneal Cholesterol Concentration, Difference Between Treated and Untreated Eyes, %: individual rabbit
Description: Nine New Zealand white strain rabbits weighting 1 to 2 kg were rendered hypercholesterolemic by foods that contained high levels of cholesterol, as described in Stock et. al., Arch. Ophthalmol., 103:726-730, 1985; and Mendelsohn et al., Ophthalmic Surg., 17:502-508, 1986. Eight days after commencement of the high-cholesterol diet, corneal sutures were implanted in both eyes according to the surgical procedure described in Mendelsohn et al., Ophthalmic Surg., 17:502-508, 1986.
On day 22, slit-lamp photographs and fluorescein angiograms were obtained of all corneas (Mendelsohn et al., Arch. Ophthalmol., 105:983-988, 1987, the disclosure of which is hereby incorporated by reference and relied upon). On the next day, one eye of each rabbit underwent laser surgery, with the other eye serving as a comparative control. Rose bengal dye was dissolved at a concentration of 30 mg/ml in 0.9% saline solution. For the initial injection, the dye solution was administered at a total body concentration of 45 mg/kg. For the two animals in which the procedure took longer than 25 minutes, a booster injection of 15 mg/kg was administered. Irradiations of corneal vessels were carried out with an argon ion laser (Model 95, Cooper Laser-Sonica, Sunnyvale, Calif.) operated in the TEM00 mode at 514.5 nm. The beam was directed toward an aluminized mechanical shutter (AW Vincent Associates, Rochester, NY), which reflected it at a right angle through a 514.5-nm custom interference filter with a transmittance of 92% (Omega Optical, Brattleboro, VT) and then through a fused silica lens with a focal length of 7.5 cm for focusing into a 2.5-m fiberoptic cable 400 μm in diameter. In the optical fiber, the gaussian input beam profile was converted into an output beam. The output was collimated by a plano convex lens 3.5 cm in focal length and focused with a plano convex lens with a focal length of 1.0 cm. The lenses were mounted in a beam telescope attached to an X-Y positioning device (Daedal Inc., Harrison City, Pa.). The beam diameter was measured with a calibrated reticle in the ocular of a ×20 operating microscope. By observing, through a 514.5-nm rejection filter, the fluorescence of a white card impregnated with rhodamine B, the minimum diameter of the organe fluorescent spot at the focal point was determined to be 63 μm. Combining the transmission efficiencies of the three uncoated lenses (92% per lens, 76% total transmission) with those of the optical fiber and interference filter yielded a system transmission efficiency of 61.5%. This reduced the incident power level of the laser from 215 mW to an effective power level of 132 mW; this corresponded to an incident intensity at the focal point of 4.23 kW/cm^2 . During shutter closure, irradiations were carried out in 0.2-s intervals. When the shutter was opened, the low-power beam, which was reflected off an optical flat and through the optical system, was used for aligning the next vessel selected for irradiation.
One eye of each rabbit was subjected to laser applications that were directed toward the vascular branching points of the limbal and corneal feeder vessels adjacent to the sites of lipid deposits. […] Initially, the irradiated segment appeared yellow-orange because the fluorescence of rose bengal had been absorbed into erythrocyte plasma membranes and plasma proteins. As platelets accumulated, the fluorescence became yellowish and less intense. […]

[2] = system: middle cerebral artery (MCA); experiment: He-Ne laser photochemically induced MCA thrombosis (Example 7); type: in vivo, rat (male Sprague-Dawley)
Method: Normally fed male Sprague-Dawley rats weighting 280-330 gm were used. Anesthesia was induced with 4% halothane and maintained with 1.5% halothane, 70% N2 O and a balance of O2 delivered through a closely fitting face mask. Polyethylene catheters were inserted retrogradely into the right external carotid artery and right femoral artery and vein. The partial pressures of O2 and CO2 and the arterial pH were measured frequently. Rectal temperature was maintained at 37° C. by means of a heating pad.
Rats were mounted on a stereotaxic frame and the right MCA was exposed by a modified subtemporal approach. A portion of the jaw was removed, and the masseter muscle was retracted downward to facilitate exposure of the MCA. The mandibular joint was kept intact so as not to disturb normal feeding. To produce MCA occlusion in these studies, a low power He-Ne laser operating in the TEM^*01 (doughnut) mode at 0.8 mW and at a wavelength of 543.5 nm (PMS Electro-Optics, Boulder, CO.) was used. The efficiency of this laser in interacting with rose bengal dye is appreciable (58%) in that its emission wavelength is near the absorption maximum of rose bengal in tissue (562 nm). The animal was moutned in a stereotaxic frame, and its right side was tilted upward by 35° in order for the laser beam to strike the proximal MCA tangentially. The ring-shaped beam was focused transversely onto the exposed MCA by two crossed cylindrical lenses of 1- and 2-inch focal length. The resulting focused spot, rectangular in shape, was ~200 μm wide (spanning the diameter of the MCA perpendicular to its axis) and 40 μm high (parallel to the MCA axis).
MCA thrombosis was induced in two steps. First, the linear beam was focused transversely on the MCA segment just distal to the rhinal branch. The intensity of laser irradiation at the focal site was 10 W/cm^2. Rose bengal was then injected intravenously (30 mg/ml in saline, 0.67 ml/kg bw weight). An orange fluorescence was immediately observed in the irradiated MCA segment, and a white thrombus began to form within the fluorescent segment and gradually elongated rostrally. […]

[3] = system: arteries
Description: The method utilizes an intravascular photochemical reaction to induce structural damage to normally non-thrombogenic vascular endothelium. The photochemical process is mediated by rose bengal, a potent photosensitizing dye injected into the bloodstream. Absorption by the injected rose bengal dye of light at a wavelength sufficient to electronically excite the rose bengal molecules induces photochemical injury via singlet oxygen peroxidation reactions in the vascular endothelium at the point of interaction of the rose bengal and the light beam, which is preferably a laser light beam.
A tunable argon ion laser (a Lexel Model 95 argon ion laser, manufactured by Cooper LaserSonics, Santa Clara, Calif.), operated at 514.5 nm, was used for the irradiation. The argon ion laser was focused according to a derived criterion (described below) to facilitate maximally efficient intraluminal growth of the occlusive thrombus. The middle cerebral artery was irradiated with 7.5 mW delivered either continuously or via a beam-chopper operated at 200 Hz (with 75 mW peak power, 10% duty cycle). The carotid and femoral arteries were each irradiated with a chopped beam at 1 W average power (2 W peak power chopped at 200 Hz and 50% duty cycle). […] The middle cerebral artery (diameter approximately 200 μm) was irradiated through a spherical lens of 39-cm focal length at a distance of 40 cm from the artery; with correction for optical reflection losses, the incident intensity was 16 W/sq cm. The femoral artery (diameter 670 μm) and common carotid artery (diameter 800 μm) were irradiated through a spherical lens of 61-cm focal length at distances of 42 and 26 cm from the artery, respectively. In each case, the average incident intensity, with correction for irradiation geometry, was approximately 160 W/sq cm.
A stock solution of rose bengal dye, 30 mg/ml in 0.9% saline, was made up for intravenous injection (via the tail vein) at a dose of 40 mg/kg. Before dye injection, the contralateral (control) arteries were irradiated for 15 minutes at the stated intensities. Following this, simultaneous intravenous infusion of the rose bengal solution (at 20 mg/kg/min over 2 minutes) and irradiation of the ipsilateral artery was begun. Five rats were used for common carotid artery irradiation and four for femoral artery irradiation. In the latter case, two rats received only 20 mg/kg. Middle cerebral artery irradiation was performed in a large series of approximately 70 animals.

[4] = rat, in vivo; cited from earlier work
[5] = common carotid and femoral arteries

## O=C([O-])c1c(Cl)c(Cl)c(Cl)c(Cl)c1-c1c2cc(I)c(=O)c(I)c-2oc2c(I)c([O-])c(I)cc12.[Na+].[Na+] [rose bengal]
[1]; 45 mg/kg
  Corneal Cholesterol Concentration, Difference Between Treated and Untreated Eyes: 0.144 g of Cholesterol/100 g of Corn and 0.007 g of Cholesterol/100 g of Corn and 0.076 g of Cholesterol/100 g of Corn and 0.149 g of Cholesterol/100 g of Corn and 0.105 g of Cholesterol/100 g of Corn and 0.129 g of Cholesterol/100 g of Corn and 0.058 g of Cholesterol/100 g of Corn
  Corneal Cholesterol Concentration, Difference Between Treated and Untreated Eyes, %: -36.5% and -2.5% and -24.3% and -41.7% and -29.1% and -42.0% and -21.9%
[1]; 60 mg/kg (45 plus booster 15)
  Corneal Cholesterol Concentration, Difference Between Treated and Untreated Eyes: 0.219 g of Cholesterol/100 g of Corn and 0.206 g of Cholesterol/100 g of Corn
  Corneal Cholesterol Concentration, Difference Between Treated and Untreated Eyes, %: -58.6% and -51.8%
[1]; laser-treated vs control eyes
  average reduction of corneal cholesterol content: 36%
[2]; 30 mg/ml, 0.67 ml/kg i.v., 543.5 nm He-Ne, first irradiation
  time to complete MCA occlusion: ≤ 10 min
[2]; end of second irradiation
  thrombus length: about 1.2 mm
[2]; first irradiation
  thrombus length: ~ 400 μm
[3]; 35 kJ/sq cm large arteries, 3.5 kJ/sq cm small arteries
  time to occlusion: ≤ 3 min
[3]; [5]
  distal extension of mixture of red blood cells and coagulum: at least 10 arterial diameters
  thrombus composition: thrombus of mixed character
[3]; irradiated arteries of rats injected with rose bengal solution
  photochemically induced thrombotic occlusion: always observed
[4]
  half-life in blood: two
